Test results taken from patent publication US20240299385A1 (ReWind Therapeutics NV, priority 2021, published 2024).

Target: T1, human GPR17 receptor (Homo sapiens, UniProt Q13304)
T1 construct: host or cells: HEK-293
Assay: Calcium mobilization functional assay (Fluo-8, FLIPR TETRA) in HEK-293 hGPR17 (Gα-q assay)
Format: cell-based
Details: antagonism of MDL29,951 (~EC80) induced Ca2+ signal; cell line (HEK-293 hGPR17 or HEK-293 Suchi5 hGPR17) not given
Description: HEK-293 cells stably expressing the human GPR17 receptor (HEK-293 hGPR17) developed by Axxam (Bresso, Milan, Italy) were cultured at 37° C. in a humidified atmosphere of 5% CO2. Cells were grown in EMEM supplemented with FBS (10%), Penicillin/Streptomycin (1%), Ultraglutamine I (2 mM), puromycin (0.6 μg/mL), G418 (0.4 mg/mL), zeocin (50 μg/mL). This cell line was used to test the compound antagonistic activity by monitoring the Gα-q based signaling. Signaling via Gα-q leads to mobilization of calcium from internal stores. Elevated intracellular calcium levels can then be measured with calcium-sensitive fluorescent dyes (e.g., Fluo 8-No Wash Dye).
GPR17 activation leads to both an increase in intracellular calcium (via Gα-q) and a decrease in cAMP levels (via Gα-i), implicating that both of these pathways play a role for in vivo function.
Experiments were performed using the below cell lines, as described in part 1: • HEK-293 hGPR17 (used to study the compounds acting via Gα-q pathway) • HEK-293 Suchi5 hGPR17 (used to study the compounds acting via Gα-i pathway, where the Gα-i signaling is switched to a Gα-q signaling thanks to the Gα-i/q chimera Suchi5)
GPR17 activation was able to induce an endoplasmic reticulum calcium (Ca^2+) store release in cytosol which could be measured using the fluorescent Ca^2+ sensitive dye Fluo-8 No Wash Dye as readout.
HEK-293 hGPR17 and HEK-293 Suchi5 hGPR17 were seeded at a density of 15,000 cells/well into poly-D-lysine coated black 384-well plates with clear bottom in complete medium. Cells were incubated overnight at 37° C. in a humidified atmosphere of 5% CO2. Twenty-four hours after seeding, the culture medium was carefully removed manually and the cells were loaded for 60 minutes at room temperature with the Ca^2+ sensitive Fluo-8 No Wash Dye, according to manufacturer's instructions. Cells were then assayed using a fluorometric imaging plate reader (FLIPR^TETRA). Fluorescence (excitation: 470-495 nm; emission: 515-575 nm) was recorded during the experiment. […] After twenty minutes, a second injection of MDL29,951 at ˜EC80 (500 nM for HEK-293 hGPR17 and 2 nM for HEK-293 Suchi5 hGPR17) in assay buffer was performed at the FLIPR^TETRA and the signal of the emitted fluorescence was recorded for additional 2 minutes. All the compound injections and incubations were performed in duplicate. For data quality and data analysis the Screener® 16.0.6 (Genedata) software was used.

T1 sequence (Q13304 whole entry): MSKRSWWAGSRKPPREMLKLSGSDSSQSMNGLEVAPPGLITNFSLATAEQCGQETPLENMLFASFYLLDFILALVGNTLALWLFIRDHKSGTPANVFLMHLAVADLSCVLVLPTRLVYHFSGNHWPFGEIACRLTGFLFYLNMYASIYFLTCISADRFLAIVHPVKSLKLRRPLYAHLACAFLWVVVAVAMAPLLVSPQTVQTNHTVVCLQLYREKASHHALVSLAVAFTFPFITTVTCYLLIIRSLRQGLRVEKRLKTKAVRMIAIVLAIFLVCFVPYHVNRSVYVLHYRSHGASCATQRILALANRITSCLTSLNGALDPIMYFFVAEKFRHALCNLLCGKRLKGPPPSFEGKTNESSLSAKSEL

SMILES	IC50 [nM]
Cn1nccc1-c1cc(S(=O)(=O)Nc2ccc(C#N)cc2F)c[nH]1 [Cpd 078, N-(4-cyano-2-fluoro-phenyl)-5-(2-methylpyrazol-3-yl)-1H-pyrrole-3-sulfonamide]	5000 to 50000
COc1cccc(-c2cc(S(=O)(=O)Nc3ccc(C#N)cc3F)c[nH]2)c1F [Cpd 087, N-(4-cyano-2-fluoro-phenyl)-5-(2-fluoro-3-methoxy-phenyl)-1H-pyrrole-3-sulfonamide]	500 to 5000
N#Cc1ccc(NS(=O)(=O)c2c[nH]c(-c3ccccc3C(F)F)c2)c(F)c1 [Cpd 093, N-(4-cyano-2-fluoro-phenyl)-5-[2-(difluoromethyl)phenyl]-1H-pyrrole-3-sulfonamide]	500 to 5000
N#Cc1ccc(NS(=O)(=O)c2c[nH]c(-c3ncccn3)c2)c(F)c1 [Cpd 094, N-(4-cyano-2-fluorophenyl)-5-(pyrimidin-2-yl)-1H-pyrrole-3-sulfonamide]	5000 to 50000
COc1cccc(OC)c1-c1cc(S(=O)(=O)Nc2ccc(C#N)cc2F)c[nH]1 [Cpd 095, N-(4-cyano-2-fluoro-phenyl)-5-(2,6-dimethoxyphenyl)-1H-pyrrole-3-sulfonamide]	500 to 5000
N#Cc1ccc(NS(=O)(=O)c2c[nH]c(-c3ccc(C#N)cc3F)c2)c(F)c1 [Cpd 096, N,5-bis(4-cyano-2-fluoro-phenyl)-1H-pyrrole-3-sulfonamide]	500 to 5000
N#Cc1ccc(NS(=O)(=O)c2c[nH]c(-c3cc(F)cc(F)c3F)c2)c(F)c1 [Cpd 097, N-(4-cyano-2-fluoro-phenyl)-5-(2,3,5-trifluorophenyl)-1H-pyrrole-3-sulfonamide]	500 to 5000
N#Cc1ccc(NS(=O)(=O)c2c[nH]c(C3CCC3)c2)c(F)c1 [Cpd 098, N-(4-cyano-2-fluorophenyl)-5-cyclobutyl-1H-pyrrole-3-sulfonamide]	500 to 5000
O=S(=O)(Nc1ccc(C(F)(F)F)nc1)c1c[nH]c(-c2ccccc2)c1 [Cpd 099, 5-phenyl-N-[6-(trifluoromethyl)-3-pyridyl]-1H-pyrrole-3-sulfonamide]	500 to 5000
Cc1ncccc1NS(=O)(=O)c1c[nH]c(-c2ccccc2)c1 [Cpd 100, N-(2-methyl-3-pyridyl)-5-phenyl-1H-pyrrole-3-sulfonamide]	500 to 5000
Cc1ccc(NS(=O)(=O)c2c[nH]c(-c3ccccc3)c2)c(C)n1 [Cpd 101, N-(2,6-dimethyl-3-pyridyl)-5-phenyl-1H-pyrrole-3-sulfonamide]	500 to 5000
N#Cc1ccc(NS(=O)(=O)c2c[nH]c(-c3cc(F)cc(F)c3)c2)c(F)c1 [Cpd 104, N-(4-cyano-2-fluoro-phenyl)-5-(3,5-difluorophenyl)-1H-pyrrole-3-sulfonamide]	500 to 5000
N#Cc1ccc(NS(=O)(=O)c2c[nH]c(-c3cccnc3F)c2)c(F)c1 [Cpd 105, N-(4-cyano-2-fluoro-phenyl)-5-(2-fluoro-3-pyridyl)-1H-pyrrole-3-sulfonamide]	500 to 5000
N#Cc1ccc(NS(=O)(=O)c2c[nH]c(-c3ccccc3C#N)c2)c(F)c1 [Cpd 106, N-(4-cyano-2-fluoro-phenyl)-5-(2-cyanophenyl)-1H-pyrrole-3-sulfonamide]	500 to 5000
N#Cc1ccc(NS(=O)(=O)c2c[nH]c(-c3cccc(CO)c3F)c2)c(F)c1 [Cpd 107, N-(4-cyano-2-fluoro-phenyl)-5-[2-fluoro-3-(hydroxymethyl)phenyl]-1H-pyrrole-3-sulfonamide]	500 to 5000
N#Cc1ccc(NS(=O)(=O)c2c[nH]c(-c3cc(CO)ccc3F)c2)c(F)c1 [Cpd 108, N-(4-cyano-2-fluoro-phenyl)-5-[2-fluoro-5-(hydroxymethyl)phenyl]-1H-pyrrole-3-sulfonamide]	500 to 5000
O=S(=O)(Nc1cc(F)c(F)cc1F)c1c[nH]c(-c2ccc(F)cc2)c1 [Cpd 109, 5-(4-fluorophenyl)-N-(2,4,5-trifluorophenyl)-1H-pyrrole-3-sulfonamide]	5000 to 50000
O=S(=O)(Nc1cc(F)c(F)cc1F)c1c[nH]c(-c2cccc(F)c2)c1 [Cpd 110, 5-(3-fluorophenyl)-N-(2,4,5-trifluorophenyl)-1H-pyrrole-3-sulfonamide]	500 to 5000
Cc1ccccc1-c1cc(S(=O)(=O)Nc2cc(F)c(F)cc2F)c[nH]1 [Cpd 111, 5-(o-tolyl)-N-(2,4,5-trifluorophenyl)-1H-pyrrole-3-sulfonamide]	500 to 5000
O=S(=O)(Nc1ccc2ncccc2c1)c1c[nH]c(-c2ccccc2)c1 [Cpd 112, 5-phenyl-N-(6-quinolyl)-1H-pyrrole-3-sulfonamide]	500 to 5000
O=S(=O)(Nc1cc(F)c(C(F)(F)F)cc1F)c1c[nH]c(-c2ccc(F)cc2)c1 [Cpd 113, N-[2,5-difluoro-4-(trifluoromethyl)phenyl]-5-(4-fluorophenyl)-1H-pyrrole-3-sulfonamide]	500 to 5000

Next, values leading:

IC50 [nM]	SMILES
< 500	N#Cc1cc(F)c(NS(=O)(=O)c2c[nH]c(-c3ccccc3)c2F)cc1F [Cpd 076, N-(4-cyano-2,5-difluoro-phenyl)-4-fluoro-5-phenyl-1H-pyrrole-3-sulfonamide]
500 to 5000	N#Cc1cc(F)c(NS(=O)(=O)c2cc(-c3ccccc3)[nH]c2F)cc1F [Cpd 077, N-(4-cyano-2,5-difluoro-phenyl)-2-fluoro-5-phenyl-1H-pyrrole-3-sulfonamide]
500 to 5000	N#Cc1ccc(NS(=O)(=O)c2c[nH]c(-c3ccccc3C(F)(F)F)c2)c(F)c1 [Cpd 079, N-(4-cyano-2-fluoro-phenyl)-5-[2-(trifluoromethyl)phenyl]-1H-pyrrole-3-sulfonamide]
500 to 5000	COCc1ccccc1-c1cc(S(=O)(=O)Nc2ccc(C#N)cc2F)c[nH]1 [Cpd 080, N-(4-cyano-2-fluoro-phenyl)-5-[2-(methoxymethyl)phenyl]-1H-pyrrole-3-sulfonamide]
500 to 5000	Cn1ccc(-c2cc(S(=O)(=O)Nc3ccc(C#N)cc3F)c[nH]2)n1 [Cpd 081, N-(4-cyano-2-fluoro-phenyl)-5-(1-methylpyrazol-3-yl)-1H-pyrrole-3-sulfonamide]
< 500	Cc1cccc(F)c1-c1cc(S(=O)(=O)Nc2ccc(C#N)cc2F)c[nH]1 [Cpd 082, N-(4-cyano-2-fluoro-phenyl)-5-(2-fluoro-6-methyl-phenyl)-1H-pyrrole-3-sulfonamide]
< 500	COc1cccc(F)c1-c1cc(S(=O)(=O)Nc2ccc(C#N)cc2F)c[nH]1 [Cpd 083, N-(4-cyano-2-fluoro-phenyl)-5-(2-fluoro-6-methoxy-phenyl)-1H-pyrrole-3-sulfonamide]
< 500	COc1ccc(F)c(-c2cc(S(=O)(=O)Nc3ccc(C#N)cc3F)c[nH]2)c1 [Cpd 084, N-(4-cyano-2-fluoro-phenyl)-5-(2-fluoro-5-methoxy-phenyl)-1H-pyrrole-3-sulfonamide]
500 to 5000	Cc1cccc(C)c1-c1cc(S(=O)(=O)Nc2ccc(C#N)cc2F)c[nH]1 [Cpd 085, N-(4-cyano-2-fluoro-phenyl)-5-(2,6-dimethylphenyl)-1H-pyrrole-3-sulfonamide]
500 to 5000	COc1ccc(-c2cc(S(=O)(=O)Nc3ccc(C#N)cc3F)c[nH]2)c(F)c1 [Cpd 086, N-(4-cyano-2-fluoro-phenyl)-5-(2-fluoro-4-methoxy-phenyl)-1H-pyrrole-3-sulfonamide]
< 500	N#Cc1ccc(NS(=O)(=O)c2c[nH]c(-c3cc(F)c(F)cc3F)c2)c(F)c1 [Cpd 088, N-(4-cyano-2-fluoro-phenyl)-5-(2,4,5-trifluorophenyl)-1H-pyrrole-3-sulfonamide]
< 500	COc1nccc(F)c1-c1cc(S(=O)(=O)Nc2ccc(C#N)cc2F)c[nH]1 [Cpd 089, N-(4-cyano-2-fluoro-phenyl)-5-(4-fluoro-2-methoxy-3-pyridyl)-1H-pyrrole-3-sulfonamide]
< 500	N#Cc1ccc(NS(=O)(=O)c2c[nH]c(-c3ncccc3F)c2)c(F)c1 [Cpd 090, N-(4-cyano-2-fluorophenyl)-5-(3-fluoropyridin-2-yl)-1H-pyrrole-3-sulfonamide]
< 500	N#Cc1ccc(NS(=O)(=O)c2c[nH]c(-c3c(F)cccc3F)c2)c(F)c1 [Cpd 091, N-(4-cyano-2-fluoro-phenyl)-5-(2,6-difluorophenyl)-1H-pyrrole-3-sulfonamide]
< 500	N#Cc1ccc(NS(=O)(=O)c2c[nH]c(-c3cccs3)c2)c(F)c1 [Cpd 102, N-(4-cyano-2-fluoro-phenyl)-5-(2-thienyl)-1H-pyrrole-3-sulfonamide]
< 500	N#Cc1ccc(NS(=O)(=O)c2c[nH]c(-c3ccsc3)c2)c(F)c1 [Cpd 103, N-(4-cyano-2-fluoro-phenyl)-5-(3-thienyl)-1H-pyrrole-3-sulfonamide]
